In article PMC6934184, “Selective DNA-PKcs inhibition extends the therapeutic index of localized radiotherapy and chemotherapy” (The Journal of Clinical Investigation, 2019):

Target: T1, MAP2K3 (MEK3) (Homo sapiens, UniProt P46734)
T1 construct: purchased Thermo Fisher Scientific (Life Technologies) SelectScreen
Assay: SelectScreen LanthaScreen
Assay type: binding
Details: read-out: % displacement
Procedure, shortened: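 SelectScreen broad panel; activity (Z'LYTE, Adapta) plus binding formats. ATP: Km app for CSF1R Z'LYTE; 10 for CAMK1 Adapta. Readout = % per kinase.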

T1 sequence (P46734 whole entry): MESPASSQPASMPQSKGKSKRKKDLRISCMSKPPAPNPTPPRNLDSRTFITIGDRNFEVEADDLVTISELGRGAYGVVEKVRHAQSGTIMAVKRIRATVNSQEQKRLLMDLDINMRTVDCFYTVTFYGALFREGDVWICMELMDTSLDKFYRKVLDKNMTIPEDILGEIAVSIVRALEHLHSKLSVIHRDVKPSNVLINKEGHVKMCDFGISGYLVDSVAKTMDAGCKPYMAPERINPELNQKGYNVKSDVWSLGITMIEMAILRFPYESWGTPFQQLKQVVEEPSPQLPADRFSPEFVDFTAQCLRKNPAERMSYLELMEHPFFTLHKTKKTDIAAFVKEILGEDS

CN(C(=O)CN1CCOCC1)c1ccc2sc3c(-c4cccc5c(=O)cc(N6CC7CCC(C6)O7)oc45)cccc3c2c1 [NU5455]
inhibition at 1 µM: 1.6%
